Measured values from patent publication US20160311795A1, “PYRIMIDINE DIAMINE DERIVATIVES AS INHIBITORS OF CYTOSOLIC HSP90” (CALASIA PHARMACEUTICALS, INC., priority 2012, published 2016).

What was measured:
[1] = tested on: U251MG cells; assay: Mitochondrial integrity in cells, TMRE fluorescence; assay type: cell-based, human; settings: 48 hours
Description: (§1) Additional experiments were performed to determine the effect of SBI-0640725 on mitochondrial integrity. U251MG cells were treated with tetramethylrhodamine ethyl ester (TMRE), and fluorescence was visualized using fluorescence confocal microscopy (FIG. 16 panel A), or quantitated using a fluorimeter (FIG. 16 panel B) after cells had been treated with increasing concentrations of SBI-0640725 for 48 hours. […] In experiments using isolated mitochondria, mitochondrial membrane potential was determined as a measure of mitochondrial integrity. TMRE-loaded mitochondria isolated from U251MG cells were treated with either 10 μM (left bar of the pair in FIG. 17) or 2 μM (right bar of the pair in FIG. 17) SBI-0640725 while continually monitoring changes in fluorescence intensity at 30° C.

[2] = tested on: U87MG; assay: Efficacy in GBM cells, ADP-GLO; assay type: cell-based; settings: Homo sapiens, U-87 MG
[3] = tested on: mitochondria isolated from U251MG cells; assay: Mitochondrial membrane potential in isolated TMRE-loaded mitochondria; assay type: cell-based, human; settings: 10 μM or 2 μM, 30° C.
Description: as §1

[4] = tested on: Hsp70 in U251 MG cells; assay: Hsp70 induction, ELISA; assay type: cell-based, human; settings: U251MG, 48 hours
Description: Experiments were performed using U251 MG and MBA-MD-231 cells to also measure induction of Hsp 70 in response to treatment with SBI-0640725. […] For Hsp70 induction measurements, cells were treated with increasing concentrations of SBI-0640725 for 48 hours, and Hsp70 levels were measured in cell lysates using ELISA.

[5] = tested on: Caspase 3/7 activity in HepG2 cells; assay: Cellular Caspase-3/7 luminescence assay; assay type: cell-based; settings: HepG2, 72 hours
Description: (§2) Further, the effect of SBI-0640725 on cellular caspase levels was also quantitated in U251MG, MBA-MD-231 and HepG2 cells. Each cell type was treated with increasing concentrations of SBI-0640725 for 72 hours. Quantification of total cellular Caspase-3 and 7 activity was accomplished using a Caspase-3/7 luminescence assay kit (Promega) according to the manufacturer's recommendations, and analyzed with a POLARstar Omega micro-titer plate reader (BMG). […] Caspase activity is a marker for apoptotic cell death.

[6] = tested on: Caspase 3/7 activity in MBA-MD-231 cells; assay: Cellular Caspase-3/7 luminescence assay; assay type: cell-based; settings: MBA-MD-231, 72 hours
Description: as §2

[7] = tested on: Hsp90; assay: Rat CNS Hsp90 inhibition (ex vivo labeled geldanamycin displacement in CNS lysates); settings: 40 mg/kg
[8] = tested on: Akt1 in LnCaP cells; assay: Akt1 degradation in cell lysates, ELISA; assay type: cell-based; settings: Homo sapiens, 48 h
Description: Tumor cell lines (LnCaP) were obtained from the Sanford Burnham Medical Research Institute (La Jolla, Calif.), LnCaP cells were cultured in culture medium (RPMI-glutamax, 10% FCS, 100 units/ml penicillin, and 100 μg/ml streptomycin). Cells were passaged after lifting using 0.25% trypsin/EDTA, and 3×10^5 cells were seeded in each well of six well plates (total volume 2.5 mL/well). After the cells were cultured for 24 h, increasing concentrations of Hsp90 inhibitor were added to wells in triplicate from DMSO-containing stock solutions and mixed by gently by stirring. Final DMSO concentration in all wells was 0.25%. The treated cells were then cultured for 48 h prior to lysate preparation. […] The protein concentration in the cell lysates was determined using the BCA protein assay kit used according to the manufacturer's recommendations. […] Two hundred μL of BCA Protein Assay Kit reagent was added and the mixtures were incubated at 37° C. for 30 min Protein concentrations were determined using a micro-titer plate reader (Model #Synergy HT; BioTek Inc., Winooski, Vt.).
Akt1 levels in the cell lysates were measured using kits from R&D Systems used according to the manufacturer's recommendations. […] Akt1 levels were determined using a micro-titer plate reader (Model #Synergy HT; BioTek Inc., Winooski, Vt.). […] Fluorescence intensities of the dilutions were measured to obtain a standard curve. […]

SMILES	mitochondrial integrity (retention of de-esterified TMRE) [1]	EC50 [2]	mitochondrial membrane potential [3]	induction of Hsp70 [4]	Caspase 3/7 activity [5]	Caspase 3/7 activity [6]	inhibition of Hsp90 activity in CNS tissues [7]	IC50 [8]
COc1c(C)cnc(CN(CCc2ccc(F)cc2)c2cc(Cl)nc(N)n2)c1C [SBI-0640725]	decrease proportionately with increasing concentrations	6.7 µM	mitochondrial membrane potential decreased	caused induction of Hsp70	increase in Caspase 3/7 activity	increase in Caspase 3/7 activity	–	–
COc1c(C)cnc(CN(CCc2ccccc2)c2cc(Cl)nc(N)n2)c1C [SBI-0639353, 6-Chloro-N4-((4-methoxy-3,5-dimethylpyridin-2-yl)methyl)-N4-phenethylpyrimidine-2,4-diamine]	–	–	–	–	–	–	inhibition of Hsp90 activity	5.4 µM
